Converted amounts (≈) assume the structure as drawn. Structures can show the parent of a compound that is named as a salt. Where two headings read alike, the source gives them in different places.
Experiments:
Aqueous solubility = type: physicochemical
Method: The solubility of selected compounds was tested and compared to that of comparative compound 5. To 5 mg of each test compound, water was slowly added initially in 0.5 mL and then 0.1 mL increments with vortexing for approximately 1 minute in between each aliquot of water addition and visually inspected for homogeneity. […] Table 1 provides the aqueous solubility of various prodrugs.

mdx mice [1] = assay: Dystrophin expression after intramuscular injection into TA muscles; type: in vivo; conditions: for number of dystrophin positive fibers: TA muscle of mdx mice, intramuscular injection, compound 5 compared with prodrugs; for dystrophin staining in TA muscles: mdx mice, two weeks after intramuscular injection, compared to DMSO alone
Source text: FIG. 8 provides plots showing dystrophin expression after intramuscular injection. Panel (A) provides plots showing dystrophin staining in TA muscles of mdx mice injected with RTC13 or its derivatives and analyzed two weeks after delivery of compounds and compared to muscles treated with DMSO alone. Dystrophin expression was evident in muscles that received the compounds but not in sham-injected muscles. […] (N=4 muscles per compound; scale bar: 50 μ ? ) Panel (B) provides plots showing the number of dystrophin positive fibers determined across the length of the muscle. […] Shown here is the average number of dystrophin positive fibers per cross-sectional area containing the highest number of positives. (N=4 muscles per compound; *: p=0.0008; **: p≤0.04). RTC13: compound 5; […]: compound 16; […]: compound 20; […]: compound 12; and […]: compound 8.

[2] = Pharmacokinetics studies after oral administration of compound 8 (tissue levels); type: in vivo; conditions: C57BL/10 mice; for level in heart: oral compound 8 at 10 mg/kg and 30 mg/kg; for level in biceps / level in gastrocnemius: oral compound 8 at 10 mg/kg
Method: (§1) FIG. 19 provides plots showing the results of pharmacokinetics studies in C57BL/10 mice after oral administration of compound 8 in gastrocnemius. The compound was administered at the indicated dosages in 6-8 weeks old C57BL/10 mice and tissues were analyzed in gastrocnemius 15 min, 30 min, 1 hr, 4 hrs, 6 hrs, and 24 hrs after gavage. Compound 8 and RTC13 (compound 5) were not detected in muscles isolated from mice that received compound 8 at a dose of 10 mg/kg. RTC13: compound 5; and 13Y: compound 8.
as §1, with “FIG. 20” for “FIG. 19”, “in biceps.” for “in gastrocnemius.”, “in biceps” for “in gastrocnemius”, “6 hrs” for “6 hrs,”
as §1, with “FIG. 21 provides plots” for “FIG. 19 provides plots”, “8 in heart. The compound” for “8 in gastrocnemius. The compound”, “analyzed in heart 15 min,” for “analyzed in gastrocnemius 15 min,”, “of 10 mg/kg and 30 mg/kg. RTC13:” for “of 10 mg/kg. RTC13:”

mdx mice [3] = assay: Dystrophin expression in muscles after oral administration for one month; type: in vivo; conditions: three times per day for one month, 30 mg/kg or 60 mg/kg
Method: FIG. 23 provides images of microscopic images obtained from muscles isolated from mdx mice after oral administration of compound 8. Compounds were administered in 6-8 weeks old mdx mice three times per day for one month at the indicated dosages. Dystrophin expression was evident in muscles that received the compounds but not in sham-injected muscles. […] 13Y: compound 8.

mdx mice [4] = assay: Forelimb grip test after oral administration; type: in vivo; conditions: oral administration for up to one month
Source text: (§2) FIG. 24 provides plots showing functional improvement in mdx mice after oral administration of compound 8 for up to one month. Panel (A) provides plots showing the forelimb grip test that was used to assess the effects of systemic administration of RTCs on muscle strength. […] (N=5 mice per treatment group; *p<0.05; **p<0.005). Panel (B) provides plots showing the results obtained using the wire test. […] (N=6 mice per treatment group; *p<0.05; **p=0.005). 13Y: compound 8.

mdx mice [5] = assay: Wire test after oral administration; type: in vivo; conditions: oral administration for up to one month
Source text: as §2

mdx mice [6] = assay: In vitro force measurement of diaphragm muscles (eccentric contractions); type: in vivo
Method: FIG. 25 provides plots showing in vitro force measurement of diaphragm muscles of mdx mice treated with vehicle, compound 8 at a dose of 30 mg/kg or compound 8 at a dose of 60 mg/kg three times per day at intervals of 4 hrs for up to one month. Muscles isolated from untreated and treated mice muscles were subjected to a series of five eccentric contractions with a 5-min rest between contractions. Results were compared to those of wild type (C57BL/10) mice. Panel (A) provides plots showing the decrease in force (in percentage) obtaining following eccentric contractions over the course of the analyses. […] Plot (B) show the results of the decrement in force (in percentage) obtained in mice treated with compound 8. […] (N=4 mice per treatment group, *: p≤0.05; **: p≤0.03). 13Y: compound 8.

Serum chemistry analyses = type: in vivo; conditions: mdx mice; for serum levels of albumin, ALP, total bilirubin, LDH, cholesterol, total protein, and glucose: 30 or 60 mg/kg three times per day up to one month
Method: FIG. 26 provides the results of the serum chemistry analyses of mdx mice treated with vehicle, PTC 124 at a dose of 30 mg/kg, PTC 124 at a dose of 60 mg/kg, compound 8 at a dose of 30 mg/kg or compound 8 at a dose of 60 mg/kg three times per day at intervals of 4 hrs for up to one month. […] Values are expressed as mean plus or minus Standard Deviation (±SD). The symbol * indicates statistical significance compared to mdx treated with vehicle only. The symbol † indicates statistical significance compared to wild type (C57BL/10) untreated mice. (N=4 mice per treatment group; p≤0.05). 13Y: compound 8.

[7] = system: lymphoblastoid cell lines derived from A-T patients; conditions: each of the three types of nonsense mutations (TGA>TAA>TAG); cited from earlier work
mdx cells = conditions: cells in culture; cited from earlier work
[8] = system: normal termination codons; conditions: cited from earlier work
mdx mice [9] = conditions: cited from earlier work
[10] = phase-I clinical study in cystic fibrosis; cited from earlier work
[11] = molecular target: FLuc (firefly luciferase) reporter (Photinus pyralis, UniProt P08659); conditions: cited from earlier work
[12] = Duchenne boys; cited from earlier work
[13] = thermodynamic from solid, water, ambient pH, room temperature, read-out: Solubility in (mg/mL) water at ambient pH, at room temperature

FLuc (firefly luciferase) reporter, sequence (P08659 whole entry): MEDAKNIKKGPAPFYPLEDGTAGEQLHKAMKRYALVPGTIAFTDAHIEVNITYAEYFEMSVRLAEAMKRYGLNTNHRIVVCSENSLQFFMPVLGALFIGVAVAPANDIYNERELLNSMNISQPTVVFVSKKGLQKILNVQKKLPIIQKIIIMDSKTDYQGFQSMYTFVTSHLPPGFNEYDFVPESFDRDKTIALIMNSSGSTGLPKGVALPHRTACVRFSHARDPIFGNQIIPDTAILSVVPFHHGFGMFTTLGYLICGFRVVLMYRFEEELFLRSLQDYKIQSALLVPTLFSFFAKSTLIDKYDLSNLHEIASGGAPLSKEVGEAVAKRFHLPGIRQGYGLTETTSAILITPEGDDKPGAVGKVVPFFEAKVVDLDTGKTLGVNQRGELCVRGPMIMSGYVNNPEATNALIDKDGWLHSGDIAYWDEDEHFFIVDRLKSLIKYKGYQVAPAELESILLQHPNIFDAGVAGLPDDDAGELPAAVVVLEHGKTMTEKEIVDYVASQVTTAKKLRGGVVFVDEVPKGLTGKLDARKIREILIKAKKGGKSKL

O=C(CN1CCOCC1)/N=C1\NC(=O)/C(=C/c2ccc(-c3ccccc3[N+](=O)[O-])o2)S1 [Compound 20, 2-(morpholin-4-yl)-7V-[(2£′,5Z)-5-{[5-(2-nitrophenyl)furan-2-yl]methylidene}-4-oxo-1,3-thiazolidin-2-ylidene] acetamide]
solubility (Aqueous solubility; [13]): 0.1 mg/mL (≈ 226 µM)
number of dystrophin positive fibers (mdx mice [1]): compound 5 showed a significantly higher number of positive fibers

CN1CCN(CC(=O)/N=C2\NC(=O)/C(=C/c3ccc(-c4ccccc4[N+](=O)[O-])o3)S2)CC1 [Compound 8, 2-(4-methylpiperazin-1-yl)-7V-[(2£′,5Z)-5-{[5-(2-nitrophenyl)furan-2-yl]methylidene}-4-oxo-1,3-thiazolidin-2-ylidene]acetamide dihydrochloride]
solubility (Aqueous solubility; [13]): 3.3 mg/mL
number of dystrophin positive fibers (mdx mice [1]): No significant differences
level in heart [2]: not detected
level in biceps [2]: not detected
level in gastrocnemius [2]: not detected
dystrophin expression in muscles (mdx mice [3]): higher levels of dystrophin expression than muscles obtained from mdx mice treated with PTC124
muscle strength, forelimb grip test (mdx mice [4]): significant force recovery
average hanging time, wire test (mdx mice [5]): more significant than that of sham-injected mice or mice treated with PTC 124
decrease in force (in percentage) following eccentric contractions (mdx mice [6]; 30 mg/kg and 60 mg/kg three times per day up to one month): improvement if loss of force was detected
decrement in force (in percentage) (mdx mice [6]; 60 mg/kg three times per day, compared to vehicle only): significantly lower
serum levels of albumin, ALP, total bilirubin, LDH, cholesterol, total protein, and glucose (Serum chemistry analyses): within normal range
alanine aminotransferase (ALT) (Serum chemistry analyses; compared to vehicle alone): decrease
blood urea nitrogen (BUN) (Serum chemistry analyses; compared to vehicle alone): decrease
creatinine (Serum chemistry analyses; compared to vehicle alone): decrease

gentamicin
dystrophin staining in TA muscles (mdx mice [1]): Weak expression

N=C1NC(=O)/C(=C/c2ccc(-c3ccccc3[N+](=O)[O-])o2)S1 [Compound 5, (5Z)-2-imino-5-([5-(2-nitrophenyl)furan-2-yl]methylidene)-1,3-thiazolidin-4-one]
solubility (Aqueous solubility): low solubility
dissolution in water (Aqueous solubility; diluted to IL with water, vigorously stirred for up to 12 hr): did not appear to dissolve fully
solubility (Aqueous solubility; [13]): < 0.005 mg/mL
number of dystrophin positive fibers (mdx mice [1]): significantly higher number of positive fibers than muscles that received compounds 16 and 20
level in heart [2]: not detected
level in biceps [2]: not detected
level in gastrocnemius [2]: not detected
activity in A-T lymphoblastoid cell lines [7]: biological activity
full-length dystrophin in mdx cells (mdx cells): restored full-length dystrophin
read-through of normal termination (stop) codons [8]: not read-through normal termination codons
Dystrophin protein detection in muscle groups (mdx mice [9]; including diaphragm and heart): detected in all muscle groups analyzed
creatine kinase (CK) levels (mdx mice [9]; marker of muscle degeneration): decrease
Dystrophin compared to PTC 124 (mdx mice [9]; mdx mice): significantly higher
muscle strength (mdx mice [9]; over mice that did not receive the RTCs): significant increase in muscle strength
dystrophin expression in skeletal muscles (mdx mice [9]; systemic administration, mdx mice): restores functional levels of dystrophin expression

O=C1N/C(=N\C(=O)C2CCNCC2)S/C1=C\c1ccc(-c2ccccc2[N+](=O)[O-])o1 [Compound 16, N-[(2ii,5Z)-5-{[5-(2-nitrophenyl)furan-2-yl]methylidene}-4-oxo-1,3-thiazolidin-2-ylidene]piperidine-4-carboxamide hydrochloride]
solubility (Aqueous solubility; [13]): 0.18 mg/mL
number of dystrophin positive fibers (mdx mice [1]): compound 5 showed a significantly higher number of positive fibers

O=C(O)c1cccc(-c2noc(-c3ccccc3F)n2)c1 [PTC124]
muscle strength, forelimb grip test (mdx mice [4]): No significant improvements
average hanging time, wire test (mdx mice [5]): No significant improvements
serum levels of albumin, ALP, total bilirubin, LDH, cholesterol, total protein, and glucose (Serum chemistry analyses): within normal range
read-through of normal termination (stop) codons [8]: does not induce ribosomal readthrough of normal stop codons
readthrough activity compared to aminoglycosides [10]: more efficient readthrough activity than aminoglycosides
tolerability [10]: generally well tolerated
effect on reporter [11]: direct effect on the FLuc (firefly luciferase) reporter
efficacy in clinical trials [12]: indeterminate efficacy

CN(C)CC(=O)/N=C1\NC(=O)/C(=C/c2ccc(-c3ccccc3[N+](=O)[O-])o2)S1 [Compound 12, (£)-N^2,N^2-dimethyl-7V-[(5Z)-5-{[5-(2-nitrophenyl)furan-2-yl]methylidene}-4-oxo-1,3-thiazolidin-2-ylidene]glycinamide hydrochloride]
solubility (Aqueous solubility; [13]): 10 mg/mL
number of dystrophin positive fibers (mdx mice [1]): No significant differences

CC(C)(C)c1ccc(O)c(N=Cc2cccc([N+](=O)[O-])c2)c1 [RTC14]
dystrophin staining in TA muscles (mdx mice [1]): Weak expression

Source: US10287283B2, “Read-through compound prodrugs suppressing premature nonsense mutations” (The Regents of the University of California, priority 2014, dated 2019)
